Data set [1] concerns S. flexneri 2457T. Put plainly: microbe, parasite or virus in culture. The note with it: Shigella flexneri, 2457T. In kind it is cell-based, Shigella flexneri. How it is done:
Bacterial inoculum without drug was used as positive control. The bacteria inoculum (1 × 10^5 CFU/mL) for the assay was prepared by diluting a log phase incubated at 37 °C for 3–4 hr. Mueller Hinton agar plates were prepared containing 4xMIC and 10xMIC and inoculated with different concentrations of bacteria (1 × 10^9, 1 × 10^8, and 1 × 10^7 CFU/mL). Plates were prepared in duplicate and incubated overnight at 37 °C. The frequency of spontaneous resistant mutants was calculated by using the formula: FoR = resistant CFUs/inoculum CFUs. The mean of the two plates was reported.

A further data set relates to Shigella flexneri 2457T. The experiment in a line: Resazurin growth inhibition, dose response (IC50/IC90) in Müller Hinton medium. In kind it is cell-based. The note with it: ATCC700930. How it is done: We developed a high-throughput screening (HTS) method to identify compounds that could inhibit the growth of Shigella flexneri 2457T in Müller Hinton medium (Sigma Aldrich, UK). We adapted a resazurin reduction protocol from Franzblau et al. as surrogate readout for bacterial viability because it provided a stable signal, a low interference level, and was cost effective ([Franzblau et al., 1998]). Prior to the day of experimentation, one colony was used to inoculate 50 mL Mueller Hinton medium, and the culture was incubated overnight at 37 °C. The next day, 500 μL of the bacterial culture were inoculated into 50 mL fresh Mueller Hinton medium and bacterial growth was measured periodically at 600 nm. When the culture reached OD = 0.4–0.6, the inoculum was diluted to 1 × 10^6 CFU/mL; this bacterial suspension was added to compound pre-dispensed plates for screening.
The assay was performed in 1536-well polystyrene assay plates (HiBase, μClear, Greiner Bio‐One) and used to screen ~1.7 million compounds from (a) GSK naïve chemical diversity, (b) GSK antibacterial programs, and (c) marketed antimicrobial agents. All commercially available chemicals were purchased from either Sigma Aldrich, UK, AK Scientific, or Fischer Chemicals. The GSK compound screening set was sub-selected from the 8 million compound GSK collection using the principles described by Harper and co-workers ([Harper et al., 2004]). The process to generate the structural filters to remove compounds bearing undesirable/reactive chemotypes and/or non-developable physicochemical properties has been described previously by [Chakravorty et al., 2018]. […]. The set of marketed antibacterial agents included most commercial antimicrobial agents.
For screening, plates were prepared by dispensing 50 nl of compound from master plates at 1 mM in each well using a LabCyte Echo system. The final assay volume was 5 μl and the final compound concentration was 10 µM. The 11th and 12th columns were growth controls containing 50 nL of DMSO. The 34th and 35th columns contained 50 nL of Moxifloxacin at 20 μM as negative growth controls. Five µl of bacterial inoculum was dispensed into compound pre-dispensed plates using a Multidrop Combi dispenser (Thermo Scientific). Plates were agitated for 10 s to ensure mixing and incubated at 37 °C overnight (16–17 hr). Following overnight culture, 2 µl resazurin solution (Resazurin tablets for milk testing, BDH) was added to each well and incubated at room temperature in the dark for 3 hr. Fluorescence intensity was measured using an Envision plate reader (PerkinElmer). […] Data were analysed using Base software and statistical cut-off analysis was used for ‘hit’ selection following a standard GSK protocol. To calculate the statistical cut-off, percentage growth inhibition was calculated per well according to the plate controls, these values were aggregated to calculate the robust mean and standard deviation (SD) of the distribution. The robust mean was calculated starting from the median and the MAD of the distribution with an iterative process that aimed to remove outliers. Once the mean and SD were calculated, all compounds above mean + 3 SD were selected as primary hits.
After the initial screen, we generated fresh samples of the primary compound hits and tested them in duplicate against S. flexneri 2457T at 10 μM to confirm activity. The confirmed hit list was narrowed by applying the following filters: a 30% cut-off value, absence of undesirable structural features (e.g. electrophiles, peroxides, and Michael acceptors) and reduced physicochemical risk (maximum five aromatic rings and PFI <8)([Leeson and Young, 2015]). […].
In general terms: Alamar Blue is a resazurin reagent that responds to reducing activity.

Data set [2] relates to S. flexneri 2457T. In kind it is in vivo. The conditions noted are these: mice, 40 mg/kg PO, 24 hr post infection, limit of quantification 80.
Another data set relates to S. flexneri EG478. Put plainly: Solid medium test at 10 µM and dose-response MIC against MDR clinical isolate. The note with it: for bactericidal activity: MDR clinical isolate S. flexneri EG478; for MIC range: range over S. flexneri EG478 and S. sonnei 02-1181. In kind it is cell-based, Shigella flexneri. How it is done:
(§1) The confirmed hit list was narrowed by applying the following filters: a 30% cut-off value, absence of undesirable structural features (e.g. electrophiles, peroxides, and Michael acceptors) and reduced physicochemical risk (maximum five aromatic rings and PFI <8)([Leeson and Young, 2015]). […] Briefly, the selected bacteria were cultured on the Luria-Bertani agar overnight at 37 °C (Campylobacter isolates were grown in 2.5% Laked Horse Blood cation-adjusted Mueller Hinton medium (CAMHB, Sigma Aldrich) and incubated in microaerophilic conditions (10% CO2, 5% O2 and 85% N2) at 42 °C); colonies were added to sterile PBS to form 0.5 McFarland solutions. All chemical testing was performed at an initial concentration of 10 μM. Bacterial suspensions were evenly spread on Mueller-Hinton agar by sterile cotton swabs (Medical Wire – MWE). […] Plates were incubated overnight at 37 °C. The activity of the chemical was recorded as being active (yes) or non-active (no) for each of the tested chemicals.
(§2) MICs were evaluated using the micro dilution assay in Müller Hinton broth using 1 mM chemical stock solutions, and a final concentration of 5 × 10^5 CFU/mL bacteria. Twofold serial dilutions were prepared in 96-well plates at concentration ranging from 1 μM to 7.8 nM. 100 μL bacteria were added and incubated at 37 °C overnight; 10 μl of each solution was dropped onto Luria-Bertani agar and incubated overnight at 37 °C for the detection of bacterial growth. Results were interpreted as minimal concentration necessary to inhibit growth.

The subject of the next data set is S. sonnei 02–1181. The description is as above. In kind it is cell-based, Shigella sonnei. The method, then: as §1, §2
Data set [3] can be described thus: Intestinal distribution by MALDI imaging in mice. In kind it is in vivo. How it is done:
One animal was euthanised at 0.25, 0.5, 1, and 4 hr respectively and 2.5–3 cm sections of the intestine (duodenum, jejunum, ileum, caecum, and colon) were collected and frozen at –80 °C. For quantitative LCMS analysis of intestine homogenate, samples were thawed at ambient temperature, mixed with water (1:1) and homogenised by turrax (10 sec). Subsequently, 20 µL of homogenate were mixed with 200 µl of ACN: MeOH (80:20) and filtered using 0.2 µm filter plate (Whatman). LCMS analysis was performed as described in previous section. For MALDI imaging, 50 mm of the central part of each intestinal section were cut and mounted in a sample disc on dry ice with a solution of 1% methylcellulose (Sigma Aldrich, UK). Next, tissue sections of 12 µm (sagital sections) were obtained using a cryostat (Leica CM3600; Leica Microsystems Inc, Wetzlar, Germany) at –20 °C and collected in conductive-coated slides for MALDI Imaging (Bruker Daltonic). After the ‘MALDI’ section was obtained a consecutive section for histology was taken. Prior to matrix coating, samples for MALDI were optical scanned in a PathScanner. The matrix deposition was conducted in a sprayer ImagePrep System (Bruker Daltonic) which uses vibrational vaporisation technology. As matrix solution α-CHCA (α-Cyano-4-hydroxycinnamic acid (Sigma Aldrich) dissolved in 70:30 methanol/water (v/v) containing 0.2% TFA at 7 mg/mL was used. MALDI MSI data were obtained using a Bruker UltrafleXtream MALDI TOF/TOF (Bruker Daltonic, Germany)).
Both compounds were analysed in positive mode using a LIFT method. For Tebipenem, parent compound was 384.32 and the detection mass window between m/z 0–400. 298.164 were the most intensive fragment. […] We used a laser shut at 85% power with a 50 μm step size, 100 times at raster spot in random wak mode. FlexImaging 4.1(bruker Daltoninc, Germany) were used for the data visualisation. […]
MALDI Imaging is not a quantitative technique, therefore, the colour scale of images is relative to the maximum intensity (100 corresponds with the maximal signa in each slide). […]

Data set [4] relates to S. flexneri 2457T. The experiment in a line: Gnotobiotic piglet Shigella infection model, efficacy. The conditions noted are these: piglets. In kind it is in vivo.

Values after ≈ are worked out from the molar mass of the structure shown.

The term IC90 denotes the point of the concentration-response curve where the effect stands at 90%. A higher IC90 goes with weaker potency.

`CC1(C)S[C@@H]2[C@H](NC(=O)[C@H](N)c3ccccc3)C(=O)N2[C@H]1C(=O)O` [Ampicilin] registered an MIC in the data set with S. flexneri 2457T [1] of 7.5 µM (≈ 2.62 µg/mL).
In the case of `CC[C@H]1OC(=O)[C@H](C)[C@@H](O[C@H]2C[C@@](C)(OC)[C@@H](O)[C@H](C)O2)[C@H](C)[C@@H](O[C@@H]2O[C@H](C)C[C@H](N(C)C)[C@H]2O)[C@](C)(O)C[C@@H](C)CN(C)[C@H](C)[C@@H](O)[C@]1(C)O` [Azithromycin], it took 7.49 µg/mL (≈ 10 µM) to reach the 90% level with Shigella flexneri 2457T (IC90).
`CO/N=C(\C(=O)N[C@@H]1C(=O)N2C(C(=O)O)=C(CSc3nc(=O)c(=O)[nH]n3C)CS[C@H]12)c1csc(N)n1` [Ceftriaxone]: the MIC in the data set with S. flexneri 2457T [1] came to 0.2 µM (≈ 0.111 µg/mL). Also, the concentration for an effect of 90% (IC90) with Shigella flexneri 2457T worked out at 0.067 µg/mL (≈ 0.121 µM).
On to `O=C(O)c1cn(C2CC2)c2cc(N3CCNCC3)c(F)cc2c1=O` [Ciprofloxacin], for which the MIC in the data set on S. flexneri 2457T [1] turned out to be 0.06 µM (≈ 0.0199 µg/mL). Besides, in the data set with S. flexneri 2457T [2], the “S. flexneri CFUs in gastrointestinal tissue” value is reported as less than 80 CFU. In the data set on Shigella flexneri 2457T, the IC90 is 0.02 µg/mL (≈ 0.0604 µM).
With `C[C@@H](O)[C@H]1C(=O)N2C(C(=O)O)=C(S[C@@H]3CN[C@H](C(=O)Nc4cccc(C(=O)O)c4)C3)[C@H](C)[C@H]12` [Ertapenem], in the data set on S. flexneri EG478, the bactericidal activity result is listed as “greatest bactericidal activity” and the MIC range lay in the range of 0.04 to 0.15 µg/mL. Besides, in the data set on S. sonnei 02–1181, the bactericidal activity result was “greatest bactericidal activity”.
In turn, `C[C@@H](O)[C@H]1C(=O)N2C(C(=O)O)=C([C@H]3CCCO3)S[C@H]12` [Faropenem] gave an MIC range against S. flexneri EG478 of 2.5 to 6.25 µg/mL.
The molecule `CC1(C)S[C@@H]2[C@H](/N=C/N3CCCCCC3)C(=O)N2[C@H]1C(=O)O` [Mecillinam] had an MIC with S. flexneri 2457T [1] of 0.2 µM (≈ 0.0651 µg/mL). In addition, in the data set with Shigella flexneri 2457T, the 90% effect level (IC90) was put at 0.058 µg/mL (≈ 0.178 µM).
Take `C[C@@H](O)[C@H]1C(=O)N2C(C(=O)O)=C(S[C@@H]3CN[C@H](C(=O)N(C)C)C3)[C@H](C)[C@H]12` [Meropenem]: in the data set on S. flexneri EG478, the bactericidal activity result was “greatest bactericidal activity” and the MIC range was 0.15 µg/mL (≈ 0.391 µM). Besides, in the data set with S. sonnei 02–1181, the bactericidal activity entry was “greatest bactericidal activity”.
The molecule `COc1c(N2C[C@@H]3CCCN[C@@H]3C2)c(F)cc2c(=O)c(C(=O)O)cn(C3CC3)c12` [Moxifloxacin] had an MIC with S. flexneri 2457T [1] of 0.2 µM (≈ 0.0803 µg/mL).
In turn, `CO[C@H]1/C=C/O[C@@]2(C)Oc3c(C)c(O)c4c(O)c(c(/C=N/N5CCN(C)CC5)c(O)c4c3C2=O)NC(=O)/C(C)=C\C=C\[C@H](C)[C@H](O)[C@@H](C)[C@@H](O)[C@@H](C)[C@H](OC(C)=O)[C@@H]1C` [Rifampicin] came in with an MIC against S. flexneri 2457T [1] of 3.7 µM (≈ 3.04 µg/mL).
Consider `C[C@@H](O)[C@H]1C(=O)N2C(C(=O)OCOC(=O)C(C)(C)C)=C(SC3CN(C4=NCCS4)C3)[C@H](C)[C@H]12` [Tebipenem pivoxil], for which the “MALDI detection in the intestinal lumen” value in data set [3] (60 min after oral pro-drug) is “not detectable in the lumen”. Also, the “MALDI detection within enterocytes” value in data set [3] (after oral pro-drug) is reported as “not detected within enterocytes”. Besides, the “histopathology of the large intestine vs placebo” value in the data set with S. flexneri 2457T [4] (day six post infection) is “marked reduction in intestinal lesions and inflammation”. In addition, in the data set on S. flexneri 2457T [4] (single dose given 24 hr after infection, from 1 × 10^7, within 24 hr), the “CFU/g Shigella in stool” value was “zero”.

Values taken from paper PMC8959600 (eLife, 2022).
